Experimental data as given in US20230250095A1, “BENZIMIDAZOLE DERIVATIVES, PREPARATION METHOD THEREFOR AND MEDICAL USE THEREOF” (TUOJIE BIOTECH(SHANGHAI) CO., LTD., priority 2020, published 2023).
pIC50: −log10 of the molar value.

What was measured:
hP2X3 = molecular target: T1, hP2X3 (Homo sapiens, UniProt P56373); experiment: FLIPR calcium flux assay, antagonistic activity against hP2X3 receptor; format: cell-based; details: 1321N1/hP2X3 cells, agonist α,β-meATP 500 nM
T1 construct: host or cells: 1321N1 cells
T1 sequence (P56373 1-397): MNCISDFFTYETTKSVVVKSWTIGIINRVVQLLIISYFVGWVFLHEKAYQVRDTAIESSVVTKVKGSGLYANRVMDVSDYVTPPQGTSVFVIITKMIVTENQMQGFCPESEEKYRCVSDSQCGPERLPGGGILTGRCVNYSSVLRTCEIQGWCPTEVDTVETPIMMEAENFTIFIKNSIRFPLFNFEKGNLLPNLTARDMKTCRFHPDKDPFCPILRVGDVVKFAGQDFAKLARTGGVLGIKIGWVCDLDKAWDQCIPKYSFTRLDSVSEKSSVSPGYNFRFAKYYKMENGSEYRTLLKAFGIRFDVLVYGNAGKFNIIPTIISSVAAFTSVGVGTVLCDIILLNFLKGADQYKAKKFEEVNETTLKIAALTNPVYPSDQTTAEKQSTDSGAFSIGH
Method: (§1) The compounds were screened for antagonistic activity against hP2X3 and hP2X2/3 receptors (changes in calcium flux signals represent the effect of the compounds on ion channels) by an FLIPR assay.
(§2) 1321N1 cells (adherent cells) stably transfected with hP2X3 and hP2X2/3 receptors were digested, centrifuged, resuspended in a plating medium (DMEM+10% DFBS) and counted, adjusted to 2×10^5 cells/mL. The cells were seeded in a 384-well assay plate at 50 μL/well, and incubated in an incubator at 37° C. with 5% CO2 for 16-24 h. Test compounds (20 mM DMSO stock solution) that were 180 times the desired concentration were prepared with DMSO, and added to a 384-well compound plate at 500 nL/well. Then, each well was supplemented with 30 μL of FLIPR buffer (lx HBSS containing 1.26 mM Ca^2++2 mM CaCl2)+20 mM HEPES), and the mixture was shaken for 20-40 min to be mixed well. The agonist α,β-meATP (final concentration of 500 nM for hP2X3 cells and final concentration of 1000 nM for hP2X2/3 cells) that was 3 times the desired concentration was prepared with an FLIPR buffer, and added to another 384-well compound plate at 35 μL/well. The cell plate in which cells had been plated and cultured for 16-24 h was taken out, and the cell supernatant was removed by pipetting. 30 μL of dye (FLIPR® calcium 4 assay kit, diluted with an FLIPR buffer) was added to each well, and the plate was incubated for 1 h. 15 μL of the compound was added to each well containing cells (dosing using an FLIPR instrument), and after 15 min, 22.5 μL of agonist was added to each well and the fluorescent signal was detected (excitation wavelength: 470-495 nm, emission wavelength: 515-575 nm). With the difference between the peak and the trough of the signal taken as the basic data, the data of the highest concentration of the positive drug taken as the 100% inhibition rate, and the data of DMSO taken as the 0% inhibition rate, the inhibition effect curves of the compounds were fitted on the software Graphpad Prism 6 and IC50 values were calculated.

[1] = In vitro metabolic stability in human hepatocytes; format: in vitro ADME; details: human hepatocytes 1×10^6 cells/mL, 37° C., up to 120 min; read-out: Intrinsic clearance (uL/min/10^6 cells)
Method: The concentrations of the test compounds in the reaction system were determined by LC/MS/MS, so that the intrinsic clearance of the test compounds was calculated, and the in vitro metabolic stability in human hepatocytes was evaluated.
247.5 μL of a mixed solution of human hepatocytes at 1×10^6 cells/mL (purchased from BioreclamationIVT, Cat. No. S01205) and 2.5 μL of 100 μM test compound or positive control was added to a plate to initiate the reaction. The plate was incubated at 37° C. and 600 rpm. 20 μL of incubation system was transferred to a stop plate at 0.5 min, 5 min, 15 min, 30 min, 45 min, 60 min, 80 min, 100 min and 120 min. Then, the mixture was vortexed for 2 min to be mixed well. The stop plate was centrifuged at 4000 rpm for 20 min. 40 μL of supernatant of each compound was transferred to a 96-well sample template, after which 160 μL of pure water was added to dilute the samples.
The resulting samples were quantified from ion chromatogram. The residual rate was calculated from the peak area of the test compound or the positive control. Slope k was determined by linear regression of the […] of residual rates versus incubation time using Microsoft Excel.
Intrinsic clearance (in vitro CLint, μL/min/10^6 cells) was calculated from the slope value according to the following equation:
V=incubation volume (0.25 mL);
N=number of cells per well (0.25×10^6 cells)

hP2X2/3 = molecular target: T2, hP2X2/3 (Homo sapiens, UniProt P56373+Q9UBL9); experiment: FLIPR calcium flux assay, antagonistic activity against hP2X2/3 receptor; format: cell-based; details: 1321N1/hP2X2/3 cells, agonist α,β-meATP 1000 nM
T2 construct: host or cells: 1321N1 cells
T2 sequence (Q9UBL9 1-471): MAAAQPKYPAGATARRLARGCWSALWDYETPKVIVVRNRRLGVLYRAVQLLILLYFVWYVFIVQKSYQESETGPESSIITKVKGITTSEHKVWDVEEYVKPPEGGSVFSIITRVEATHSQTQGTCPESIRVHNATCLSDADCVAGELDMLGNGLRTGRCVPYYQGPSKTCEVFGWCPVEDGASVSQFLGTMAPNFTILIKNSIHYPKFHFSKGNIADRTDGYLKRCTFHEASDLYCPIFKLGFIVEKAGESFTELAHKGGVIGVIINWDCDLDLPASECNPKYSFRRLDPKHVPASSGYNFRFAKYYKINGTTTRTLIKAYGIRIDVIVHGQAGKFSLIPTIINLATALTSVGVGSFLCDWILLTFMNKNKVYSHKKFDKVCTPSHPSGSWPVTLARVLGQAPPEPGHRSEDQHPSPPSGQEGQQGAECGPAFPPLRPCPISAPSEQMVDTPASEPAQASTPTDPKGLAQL
T2 sequence (P56373 1-397): T1 sequence (P56373 1-397)
Method: as §1, §2

SMILES	pIC50 (hP2X3)	hepatocyte CLint at 1 μM [1]	pIC50 (hP2X2/3)
COC(=O)N1CCO[C@@H](Cc2c(-c3c(F)cc(N4CCCC4=O)cc3F)nc3cc(C)ccn23)C1 [Compound 9, Methyl (S)-2-((2-(2,6-difluoro-4-(2-carbonylpyrrolidin-1-yl)phenyl)-7-methylimidazo[1,2-a]pyridin-3-yl)methyl)morpholine-4-carboxylate]	7.12	3.86 µL/min/1e6 cells	4.52
CC(=O)N1CCO[C@@H](Cn2c(-c3ccc(N4CCCC4=O)cc3Cl)nc3cc(C)ccc32)C1 [Compound 3, (S)-1-(4-(1-((4-acetylmorpholin-2-yl)methyl)-5-methyl-1H-benzo[d]imidazol-2-yl)-3-chlorophenyl)pyrrolidin-2-one]	7.39	4.08 µL/min/1e6 cells	5.74
COC(=O)N1CCOC(Cn2c(-c3c(F)cc(N4CCCC4=O)cc3F)nc3cc(C)ccc32)C1 (centres unmarked) [Compound 2, Methyl 2-((2-(2,6-difluoro-4-(2-carbonylpyrrolidin-1-yl)phenyl)-5-methyl-1H-benzo[d]imidazol-1-yl)methyl)morpholine-4-carboxylate]	6.98	2.98 µL/min/1e6 cells	4.72
CC(=O)N1CCO[C@@H](Cn2c(-c3c(F)cc(N4CCCC4=O)cc3F)nc3cc(Cl)ccc32)C1 [Compound 10, (S)-1-(4-(1-((4-acetylmorpholin-2-yl)methyl)-5-chloro-1H-benzo[d]imidazol-2-yl)-3,5-difluorophenyl)pyrrolidin-2-one]	7.27	< 1 µL/min/1e6 cells	5.13

The next compounds have a higher pIC50 (hP2X3) than those just listed; values first:

pIC50 (hP2X3)	hepatocyte CLint at 1 μM [1]	pIC50 (hP2X2/3)	SMILES
7.43	< 1 µL/min/1e6 cells	5.25	CC(=O)N1CCOC(Cn2c(-c3c(F)cc(N4CCCC4=O)cc3F)nc3cc(C)ccc32)C1 (stereo in doubt) [Compound 1]
7.48	< 1 µL/min/1e6 cells	–	[2H]C([2H])([2H])c1ccc2c(c1)nc(-c1c(F)cc(N3CCCC3=O)cc1F)n2C[C@H]1CN(C(C)=O)CCO1 [Compound 14, (S)-1-(4-(1-((4-acetylmorpholin-2-yl)methyl)-5-(methyl-d3)-1H-benzo[d]imidazol-2-yl)-3,5-difluorophenyl)pyrrolidin-2-one]
7.50	< 1 µL/min/1e6 cells	5.72	CC(=O)N1CCO[C@@H](Cn2c(-c3c(F)cc(N4CCCC4=O)cc3Cl)nc3cc(C)ccc32)C1 [Compound 4, (S)-1-(4-(1-((4-acetylmorpholin-2-yl)methyl)-5-methyl-1H-benzo[d]imidazol-2-yl)-3-chloro-5-fluorophenyl)pyrrolidin-2-one]
